Reference: patent US20220226321A1, “INHIBITOR OF MNK FOR THE TREATMENT OF NEUROPATHIC PAIN” (Board of Regents, The University of Texas System, priority 2019, published 2022)
Entries after “also recorded” stand apart in the source; their conditions may differ.

Legend:
DRG = assay: Western blot (immunoblot) of DRG tissue after paclitaxel or eFT508 in vivo; design: species or system mouse; details: Veh=100
SNI mice = assay: attentional rule-shifting task after SNI; format: in vivo, mouse; details: SNI mice vs SNI+vehicle, 10 mg/kg p.o. 7 days
Experimental: Surgery. Spared nerve injury (SNI) was performed by the ligation and cutting of the tibial and peroneal branches of the left sciatic nerve trifurcation, leaving the sural branch intact as previously described (Decosterd and Woolf, 2000). Sham surgeries were performed the same way but without cutting the nerve. Mice were allowed to recover for 2 weeks following surgery.
Attentional rule-shifting. Habituation: Mice were handled and gradually food restricted to 90% of their baseline weight over 3 weeks. Habituation took place over 3 days in which food rewards (Cheerio bits) were placed along each arm of a plusmaze. Mice were allowed to freely explore the maze and consume the food for 4 trials per day with a maximum time of 30 minutes per trial. When the mouse had consumed all of the food, the trial ended, and the mouse was returned to a holding cage while the maze was rebaited. The number of food pellets in each arm decreased from 4 to 2 to 1 on each consecutive day of habituation. Turn bias: On the fourth day the inventors assessed the animals' turn bias. Therefore, the plus maze was converted into a T-maze by blocking off one of the arms. Mice were placed in the stem arm (starting arm) and allowed to turn left or right to obtain a food pellet. After the mouse consumed the reward, it was returned to the stem arm and allowed to make another choice. […]

paclitaxel-treated mice = assay: mechanical paw withdrawal threshold (von Frey) in paclitaxel-induced CIPN; format: in vivo, mouse; details: for mechanical allodynia / hypersensitivity, acute treatment: 10 mg/kg i.p. after full development of CIPN, 1st and 2nd injection, 1 and 3 hrs
DRG neurons = assay: whole-cell patch recording of acutely dissociated DRG neurons; format: cell-based, mouse
Experimental: Acute dissociation of mouse DRG neurons. Thirty mice were deeply anesthetized with isoflurane and the bilateral C4-5, T3-5, and L4-5 ganglia were surgically exposed and removed. The ganglia were placed in a flask containing trypsin (6.25 μg/mL, Hyclone) and type IA collagenase (0.25 mg/mL, Sigma-Aldrich) in DMEM and shaken for 50 min in a heated (37° C.) bath. After the cells were washed and mechanically dispersed with a fire polished Pasteur pipette, they were plated on poly-L-lysine-coated glass sheets and held in culture dishes with DMEM (10% FBS) until use within 6 hours after plating.
Whole-cell patch recording of spontaneous and evoked action potential in acutely dissociated mice DRG neurons. A previously described protocol was used (Li et al., 2017) for current-clamp recording. The internal solution contained 135 mM K-gluconate, 5 mM KCl, 5 mM Mg-ATP, 0.5 mM Na2GTP, 5 mM HEPES, 2 mM MgCl2, 5 mM EGTA, and 0.5 mM CaCl2 adjusted to pH 7.4 with KOH and the bath ACSF solution. DRG neurons were held at 0 pA, and the action potential current threshold was evoked using a series of 300-ms depolarizing current injections in 10-pA steps from −50 pA. The current that induced the first action potential that was defined as 1× rheobase. Only neurons with a resting membrane potential of at least −40 mV, stable baseline recordings, and evoked spikes that overshot 0 mV were used for further experiments and analysis. The DRG neurons were then held at 0 pA to record spontaneous action potential for 5 min. The different times rheobase injections for 500 ms was applied to induce action potential spike-burst responses. Series resistance (Rs) was compensated to above 70% for the recorded DRG neurons. All recordings were made at room temperature.

mice = assay: open field; format: in vivo, mouse; details: 10 mg/kg i.p., 1 hour; vehicle had the same effect
Experimental: Open field. […] Movement in the maze was video recorded for 10 minutes via ceiling-mounted cameras and tracked using a custom script in MATLAB-2015b. The script outputs total distance traveled and path tracking.

[1] = DRGs in vivo after eFT508 treatment
[2] = DRG, day 10 after induction of CIPN

SMILES: Cc1cc(Nc2cc(N)ncn2)c(=O)n2c1C(=O)NC21CCCCC1 [eFT508, Tomivosertib]
- RagA, immunoblot (DRG; [1]): 67±6.02
- p4EBP1, immunoblot (DRG; [1]): 53.12±7.03
- p-eIF4E, immunoblot (DRG; [1]): 10±2.43
- never-reinforced (NRE) and regressive (REG) type errors (SNI mice): significantly fewer
- mechanical hypersensitivity (established CIPN), chronic treatment (paclitaxel-treated mice; 1 mg/kg, WT mice): robust relief of mechanical hypersensitivity; also recorded: reverses established CIPN
- tolerance to repeated dosing (paclitaxel-treated mice; 1 mg/kg, WT mice): No signs of tolerance; also recorded: without inducing tolerance
- mechanical hypersensitivity, chronic treatment (paclitaxel-treated mice; 1 mg/kg, eIF4E^S209A mice): completely absent; also recorded: completely without effect
- mechanical allodynia / hypersensitivity, acute treatment (paclitaxel-treated mice): reversal; also recorded: transiently relieves mechanical allodynia
- mechanical allodynia / hypersensitivity, acute treatment (paclitaxel-treated mice; listed as eFT08): relieves mechanical allodynia
- spontaneous activity in DRG neurons from paclitaxel treated mice (DRG neurons): strongly suppressed; also recorded: decreases spontaneous activity
- toxicity to DRG neurons in vitro (DRG neurons): not toxic
- treatment time needed to reduce spontaneous activity in most neurons (DRG neurons; DRG neurons from paclitaxel treated mice): Approximately 20 min
- movement speed in the open field vs naïve mice (mice): moved significantly slower

SMILES: CC(=O)O[C@H]1C(=O)[C@@]2(C)[C@H]([C@H](OC(=O)c3ccccc3)[C@]3(O)C[C@H](OC(=O)[C@H](O)[C@@H](NC(=O)c4ccccc4)c4ccccc4)C(C)=C1C3(C)C)[C@]1(OC(C)=O)CO[C@@H]1C[C@@H]2O [paclitaxel]
- Esyt1 protein, immunoblot (DRG; DRG after CIPN induction): 230±18.30
- mTOR, immunoblot (DRG; DRG after paclitaxel treatment): 195±25.27
- p-4EBP1, immunoblot (DRG; DRG after paclitaxel treatment): 152±11.27
- p-eIF4E, immunoblot (DRG; DRG after paclitaxel treatment): 158±10.57
- p-mTOR, immunoblot (DRG; DRG after paclitaxel treatment): 131±20.27
- RagA protein level, immunoblot (DRG; DRG of eIF4E^S209A mice, paclitaxel vs vehicle): 75±8.46
- S6, immunoblot (DRG; [2]): 133±24.54
- p-Akt, immunoblot (DRG; [2]): 96.86±6.63
- p-ERK1/2, immunoblot (DRG; [2]): 107±14.94
- p-S6, immunoblot (DRG; [2]): 134±24.47
- RagA protein level, immunoblot (DRG; DRGs after CIPN): 181±15.35
- spontaneous activity and nociceptor excitability (DRG neurons; cervical, thoracic and lumbar DRGs, day 10, paclitaxel 4 mg/kg every other day i.p.): caused spontaneous activity and increased nociceptor excitability
